In patent publication US20250064758A1 (priority 2023, published 2025):

Key:
Format in all cases: cell-based
[1] = system: SARS-COV-2 Omicron variant BA.5
[2] = system: SARS-COV-2 Delta variant B.1.617.2
[3] = system: SARS-COV-2 Omicron variant BA.4

| Compound | SARS-CoV-2 replication fitness (viral gene copies in cell supernatant) [1] | reduction in viral load [1] | reduction in viral load [2] | reduction in viral load [3] |
| --- | --- | --- | --- | --- |
| CC(C)(C)NCC(O)COc1cccc2c1CC(O)C(O)C2 (stereo not drawn) [Nadolol] | didn't affect | – | – | – |
| CC(C)NCC(O)COc1ccc(CC(N)=O)cc1 (stereo not drawn) [atenolol] | didn't affect | – | – | – |
| CC(C)NCC(O)c1ccc(O)c(O)c1 (stereo not drawn) [isoproterenol] | didn't affect | – | – | – |
| CC(C)NCC(O)COc1cccc2ccccc12 (stereo not drawn) [Propranolol, 1-(isopropylamino)-3-(1-naphthyloxy)-2-propanol] | – | 2-3 log10 | 2-3 log10 | 2-3 log10 |
